Results taken from US20260240976A1, “T[…] VACCINES BASED ON VALIDATED TARGET EPITOPES” (Deutsches Krebsforschungszentrum Stiftung des öffentlichen …, priority 2023, published 2026).

Tested on: short-term antigen-specific T cell lines generated from PBMCs
Test: Interferon-γ ELISpot assay on short-term antigen-specific T cell lines; on ELISpot: Immungenicity of the peptide shown by IFN-gamma ELISPOT analysis: key: +: ELISPOT: Immungenicity of the peptide shown by IFN-gamma ELISPOT analysis; +*: *highlights data from published resources; *highlights data from published resources
Assay type: cell-based, human
Settings: for rates of immunoactivation in PBMC samples, CD8 T cell responses and/or numbers of HPV16 positive cell lines presenting the peptide as HLA-complexes: comparison among the peptides in Table 1

## 130 (KQRFHNIRGRW; Human papillomavirus 16) [compound 130]
HLA restriction B15
  ELISpot: Immungenicity of the peptide shown by IFN-gamma ELISPOT analysis: +

## 80 (VYCKQQLL; Human papillomavirus 16) [compound 80]
  rates of immunoactivation in PBMC samples, CD8 T cell responses and/or numbers of HPV16 positive cell lines presenting the peptide as HLA-complexes: highest rates of immunoactivation in PBMC samples, to induce the strongest CD8 T cell responses, and/or shown to be presented as HLA-complexes by the highest numbers of HPV16 positive cell lines

## 143 (LPQLCTELQT; Human papillomavirus 16) [compound 143]
HLA restriction B07
  ELISpot: Immungenicity of the peptide shown by IFN-gamma ELISPOT analysis: +

## 48 (ELQTTIHDI; Human papillomavirus 16) [compound 48]
HLA restriction A02
  ELISpot: Immungenicity of the peptide shown by IFN-gamma ELISPOT analysis: +

## 10 (ETTDLYCY; Human papillomavirus 16) [compound 10]
HLA restriction A01
  ELISpot: Immungenicity of the peptide shown by IFN-gamma ELISPOT analysis: +

## 124 (YSKISEYRHY; Human papillomavirus 16) [compound 124]
HLA restriction B15
  ELISpot: Immungenicity of the peptide shown by IFN-gamma ELISPOT analysis: +

## 98 (TPTLHEYML; Human papillomavirus 16) [compound 98]
  rates of immunoactivation in PBMC samples, CD8 T cell responses and/or numbers of HPV16 positive cell lines presenting the peptide as HLA-complexes: highest rates of immunoactivation in PBMC samples, to induce the strongest CD8 T cell responses, and/or shown to be presented as HLA-complexes by the highest numbers of HPV16 positive cell lines

## 127 (QQYNKPLCDL; Human papillomavirus 16) [compound 127]
HLA restriction B15
  ELISpot: Immungenicity of the peptide shown by IFN-gamma ELISPOT analysis: +

## 136 (GTTLEQQYNK; Human papillomavirus 16) [compound 136]
HLA restriction A03
  ELISpot: Immungenicity of the peptide shown by IFN-gamma ELISPOT analysis: +

## 1 (ISEYRHYCY; Human papillomavirus 16) [compound 1]
  rates of immunoactivation in PBMC samples, CD8 T cell responses and/or numbers of HPV16 positive cell lines presenting the peptide as HLA-complexes: highest rates of immunoactivation in PBMC samples, to induce the strongest CD8 T cell responses, and/or shown to be presented as HLA-complexes by the highest numbers of HPV16 positive cell lines

## 146 (RGRWTGRCM; Human papillomavirus 16) [compound 146]
HLA restriction B15
  ELISpot: Immungenicity of the peptide shown by IFN-gamma ELISPOT analysis: +

## 71 (KFYSKISEY; Human papillomavirus 16) [compound 71]
HLA restriction A03
  ELISpot: Immungenicity of the peptide shown by IFN-gamma ELISPOT analysis: +
HLA restriction A24
  ELISpot: Immungenicity of the peptide shown by IFN-gamma ELISPOT analysis: +

## 147 (AGQAEPDRAHY; Human papillomavirus 16) [compound 147]
HLA restriction B15
  ELISpot: Immungenicity of the peptide shown by IFN-gamma ELISPOT analysis: +

## 131 (GQAEPDRAH; Human papillomavirus 16) [compound 131]
HLA restriction B15
  ELISpot: Immungenicity of the peptide shown by IFN-gamma ELISPOT analysis: +

## 96 (AHYNIVTF; Human papillomavirus 16) [compound 96]
HLA restriction A24
  ELISpot: Immungenicity of the peptide shown by IFN-gamma ELISPOT analysis: +

## 104 (RPRKLPQLCT; Human papillomavirus 16) [compound 104]
HLA restriction B07
  ELISpot: Immungenicity of the peptide shown by IFN-gamma ELISPOT analysis: +

## 69 (AVCDKCLK; Human papillomavirus 16) [compound 69]
HLA restriction A03
  ELISpot: Immungenicity of the peptide shown by IFN-gamma ELISPOT analysis: +

## 125 (SKISEYRHY; Human papillomavirus 16) [compound 125]
HLA restriction B15
  ELISpot: Immungenicity of the peptide shown by IFN-gamma ELISPOT analysis: +

## 47 (KLPQLCTELQT; Human papillomavirus 16) [compound 47]
HLA restriction A02
  ELISpot: Immungenicity of the peptide shown by IFN-gamma ELISPOT analysis: +
